Consider four molecules from US4396625A, “Treatment of glaucoma or ocular hypertension and ophthalmic composition” (Sumitomo Chemical Company, Limited, priority 1980, dated 1983).

Each structure is given as a SMILES string. Structures can show the parent of a compound that is named as a salt. Where only a bound is given, the exact number is not on record here.

As a reminder, the LD50 is the dose expected to kill half of the subjects tested. Low values mean greater toxicity, high ones lower toxicity.

Data set [1] relates to intra-ocular pressure of the eye. Nature of the data set: Intra-ocular pressure measurement after ophthalmic administration in albino rabbits. It is filed as in vivo. The note with it: rabbit. As for the experimental part:
(§1) One drop (about 0.04 ml) of the ophthalmic composition was applied to a conjunctival sac of one eye and a drop of physiologic saline was into the conjunctival sac of the other eye. Thus applied eyes were kept closed for 5 to 10 seconds to ensure the osmosis of the medicament administered. Intra-ocular pressure in the respective eye was measured by using an Alcon Pneumatonography, just before the treatment with said medicine, and 1 to 24 hours after said administration. At each time, one drop of 0.4% oxydibucaine HCl ophthalmic composition (Trade Mark: Benoxyl® 0.4%; Santen Seiyaku K.K.) was applied to and intra-ocular pressure was measured after 20 to 30 seconds thereafter.
Using the same procedure as stated in Example 1, compound (I) was evaluated with 12 albino rabbits (male; body weight 2 to 3 kg, native kind). As the test medicaments, aqueous 0.5 w/v % and 0.25 w/v % compound (I) HCl solutions prepared according to Example 4 were used, as well as physiologic saline control solution.

For data set [2] the test system is unchanged. The experiment in a line: Intra-ocular pressure measurement after local (ophthalmic) administration in dogs. The note with it: dog, 0.5 w/v %, one drop. It is filed as in vivo, dog (Beagle). The protocol: In the local administration tests, compound (I) was applied to one eye of healthy grown-up dog (male or female; body weight 10 to 14 kg; Beagle dog) being normal in sense of sight and other sensitive faculties and having no morphological abnormality in the eyes, and evaluated for the effect thereof.
The test ophthalmic composition was prepared according to the recipe of Example 4, so as to include 0.5 w/v % of compound (I) HCl salt.
as §1

The nature of data set [3]: Stability / precipitation of ophthalmic solution on storage. The data set is classed as physicochemical. The note with it: 40° C., 3 months. The protocol:
To a part of distilled water required, was added 500 mg of compound (I) hydrochloride and the mixture was stirred at room temperature to dissolve the active ingredient. Next, D-mannitol 5 g, glycine 500 mg and Benzalkonium chloride 5 mg were added in this order and dissolved in the same way. After adjusting pH of the solution to 5.5 with hydrochloric acid, the mixture was added with distilled water to make the total volume to 100 ml. The solution was filtered under sterile conditions.
The following ophthalmic composition was prepared in the same way as stated in Example 4, using 100 mg of compound (I) acetate in place of 500 mg of compound (I) hydrochloride.
To a part of the required distilled water, was added 250 mg of compound (I) maleate, and the mixture was heated to 30° C. and stirred to dissolve the active ingredient. To this solution, 4 g of D-manitol, 1 g of glycine and 5 mg of Benzalkonium chloride were added and dissolved in this order. After adjusting pH of the solution to 6.0 with hydrochloric acid, the solution was added with distilled water to make the volume to 100 ml, and thus obtained solution was filtered under sterile conditions.

Another data set in a line: Rat acute toxicity. The data set is classed as in vivo. The note with it: in vivo.
A further data set deals with rat. The experiment in a line: Rat acute toxicity. It is filed as in vivo. The note with it: acute toxicity.
A further data set is described as follows: Mouse acute toxicity. It is filed as in vivo. The conditions noted are these: in vivo.
The next data set relates to mouse. The experiment in a line: Mouse acute toxicity. It is filed as in vivo. The conditions noted are these: acute toxicity.

On to `CC(C)(C)NCC(O)CSc1nc(-c2ccc(C(N)=O)s2)cs1` (centres unmarked) [compound (I) HCl], for which the “Intra-ocular pressure (mean ± standard error)” value in data set [1] (0.25 w/v %, 0.5 hour later) is 20.7 ± 0.7 mm Hg; in data set [1] (0.25 w/v %, 1 hour later), 20.2 ± 0.6 mm Hg; in data set [1] (0.25 w/v %, 2 hours later), 19.8 ± 0.5 mm Hg; in data set [1] (0.25 w/v %, 3 hours later) it was 20.1 ± 0.6 mm Hg; in data set [1] (0.25 w/v %, 5 hours later), 22.1 ± 0.6 mm Hg; in data set [1] (0.25 w/v %, 7 hours later), 22.9 ± 0.8 mm Hg. For the same molecule, the “Intra-ocular pressure (mean ± standard error)” value in data set [1] (0.25 w/v %, 9 hours later) was 21.0 ± 0.7 mm Hg; in data set [1] (0.25 w/v %, 24 hours later) it was 22.2 ± 0.6 mm Hg; in data set [1] (0.25 w/v %, before administration) it was 21.8 ± 0.5 mm Hg; in data set [1] (0.5 w/v %, 0.5 hour later), 21.1 ± 0.8 mm Hg; in data set [1] (0.5 w/v %, 1 hour later), 18.9 ± 0.9 mm Hg; in data set [1] (0.5 w/v %, 2 hours later), 18.5 ± 0.9 mm Hg. The “Intra-ocular pressure (mean ± standard error)” value in data set [1] (0.5 w/v %, 3 hours later) is recorded as 18.2 ± 0.8 mm Hg; in data set [1] (0.5 w/v %, 5 hours later), 21.6 ± 0.8 mm Hg; in data set [1] (0.5 w/v %, 7 hours later), 22.8 ± 0.8 mm Hg; in data set [1] (0.5 w/v %, 9 hours later), 22.2 ± 0.8 mm Hg; in data set [1] (0.5 w/v %, 24 hours later), 22.5 ± 0.8 mm Hg; in data set [1] (0.5 w/v %, before administration), 22.5 ± 0.6 mm Hg. For the same molecule, the “Intra-ocular pressure (mean ± standard error)” value in data set [2] (1 hour later) was found to be 20.0 ± 0.9 mm Hg; in data set [2] (3 hours later), 16.6 ± 1.0 mm Hg; in data set [2] (5 hours later) it was 15.4 ± 0.9 mm Hg; in data set [2] (7 hours later), 16.0 ± 1.3 mm Hg; in data set [2] (9 hours later) it was 17.6 ± 1.2 mm Hg; in data set [2] (12 hours later) it was 20.4 ± 0.7 mm Hg. For the same molecule, the “Intra-ocular pressure (mean ± standard error)” value in data set [2] (24 hours later) amounted to 20.6 ± 0.8 mm Hg; in data set [2] (before administration), 20.8 ± 0.9 mm Hg. For the same molecule, the “stability / precipitation of ophthalmic solution” value (from here on “stability / precipitation”) in data set [3] (0.5 % (w/v), pH 5.5) was “very stable and no precipitation was observed”.

For `CC(C)(C)NCC(O)CSc1nc(-c2ccc(C(N)=O)s2)cs1` (centres unmarked) [compound (I) acetate], in data set [3] (0.1 % (w/v)), the “stability / precipitation” value is “very stable and no precipitation was observed”.

Regarding `CC(C)(C)NCC(O)CSc1nc(-c2ccc(C(N)=O)s2)cs1` (centres unmarked) [compound (I) maleate], the “stability / precipitation” value in data set [3] (0.25 % (w/v), pH 6.0) is “very stable and no precipitation was observed”.

For the molecule `CC(C)(C)NCC(O)CSc1nc(-c2ccc(C(N)=O)s2)cs1` (centres unmarked) [compound (I), 2-(3-tert.-butylamino-2-hydroxypropylthio)-4-(5-carbamoyl-2-thienyl)-thiazole], the LD50 was 340 mg/kg in “Rat acute toxicity” (ip, intraperitoneal); above 3000 mg/kg in “Rat acute toxicity” (oral); 500 mg/kg in “Mouse acute toxicity” (ip, intraperitoneal); above 5000 mg/kg in the data set “Mouse acute toxicity” (oral). Further, the toxic signs entry with rat and in the data set with mouse was “no animals showed particular troublesome symptoms” throughout.
